The IC50 is the concentration at which inhibition is half-maximal.

Common to all, as to format: cell-based
One experiment has as its target T1, human TLR9 (Homo sapiens, UniProt Q9NR96).
T1 construct: host or cells: HEK-Blue cells (HEK293-derived reporter line)
T1 sequence (Q9NR96 26-1032): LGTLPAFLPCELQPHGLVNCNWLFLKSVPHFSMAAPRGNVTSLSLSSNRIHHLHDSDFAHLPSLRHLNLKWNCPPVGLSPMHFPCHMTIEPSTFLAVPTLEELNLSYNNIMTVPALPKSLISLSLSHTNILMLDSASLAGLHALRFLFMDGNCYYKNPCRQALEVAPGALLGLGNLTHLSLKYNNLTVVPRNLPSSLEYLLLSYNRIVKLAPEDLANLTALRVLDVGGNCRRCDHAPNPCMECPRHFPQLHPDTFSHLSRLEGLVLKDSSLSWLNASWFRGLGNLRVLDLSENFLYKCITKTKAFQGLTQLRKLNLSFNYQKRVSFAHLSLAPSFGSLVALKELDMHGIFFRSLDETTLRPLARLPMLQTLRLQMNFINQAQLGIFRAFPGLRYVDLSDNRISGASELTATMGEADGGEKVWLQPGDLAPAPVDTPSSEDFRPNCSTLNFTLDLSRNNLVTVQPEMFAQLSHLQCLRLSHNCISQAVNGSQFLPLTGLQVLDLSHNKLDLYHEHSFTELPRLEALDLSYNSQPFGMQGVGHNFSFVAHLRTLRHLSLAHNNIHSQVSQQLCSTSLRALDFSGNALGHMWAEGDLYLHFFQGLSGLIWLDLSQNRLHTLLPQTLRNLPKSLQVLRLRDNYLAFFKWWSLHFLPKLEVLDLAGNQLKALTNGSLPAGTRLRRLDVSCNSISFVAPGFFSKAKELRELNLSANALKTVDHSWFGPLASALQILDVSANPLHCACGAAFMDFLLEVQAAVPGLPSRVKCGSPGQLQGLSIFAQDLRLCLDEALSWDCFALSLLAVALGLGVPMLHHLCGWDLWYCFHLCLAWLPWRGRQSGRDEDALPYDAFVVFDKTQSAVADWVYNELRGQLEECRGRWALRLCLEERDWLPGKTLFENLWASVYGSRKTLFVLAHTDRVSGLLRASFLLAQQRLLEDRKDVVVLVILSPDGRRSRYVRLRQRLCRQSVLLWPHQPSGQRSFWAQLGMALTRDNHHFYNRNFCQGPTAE
Kind of experiment: TLR9 inhibition reporter assay (HEK-Blue cells, secreted embryonic alkaline phosphatase reporter). Summed up: (§1)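 Inhibitors are tested in dose response (0.05 nM–50 μM) on HEK-Blue reporter cells expressing human TLR7, TLR8 or TLR9. After 30 min at room temperature, each line is stimulated with its own agonist (gardiquimod 7.5 μM, R848 15.9 μM or ODN2006 5 nM, final) and SEAP is measured 22 h later.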
(In a reporter assay the amount or activity of a reporter protein is the signal.)

The next experiment deals with T2, human TLR7 (Homo sapiens, UniProt Q9NYK1).
T2 construct: host or cells: HEK-Blue cells (HEK293-derived reporter line)
T2 sequence (Q9NYK1 27-1049): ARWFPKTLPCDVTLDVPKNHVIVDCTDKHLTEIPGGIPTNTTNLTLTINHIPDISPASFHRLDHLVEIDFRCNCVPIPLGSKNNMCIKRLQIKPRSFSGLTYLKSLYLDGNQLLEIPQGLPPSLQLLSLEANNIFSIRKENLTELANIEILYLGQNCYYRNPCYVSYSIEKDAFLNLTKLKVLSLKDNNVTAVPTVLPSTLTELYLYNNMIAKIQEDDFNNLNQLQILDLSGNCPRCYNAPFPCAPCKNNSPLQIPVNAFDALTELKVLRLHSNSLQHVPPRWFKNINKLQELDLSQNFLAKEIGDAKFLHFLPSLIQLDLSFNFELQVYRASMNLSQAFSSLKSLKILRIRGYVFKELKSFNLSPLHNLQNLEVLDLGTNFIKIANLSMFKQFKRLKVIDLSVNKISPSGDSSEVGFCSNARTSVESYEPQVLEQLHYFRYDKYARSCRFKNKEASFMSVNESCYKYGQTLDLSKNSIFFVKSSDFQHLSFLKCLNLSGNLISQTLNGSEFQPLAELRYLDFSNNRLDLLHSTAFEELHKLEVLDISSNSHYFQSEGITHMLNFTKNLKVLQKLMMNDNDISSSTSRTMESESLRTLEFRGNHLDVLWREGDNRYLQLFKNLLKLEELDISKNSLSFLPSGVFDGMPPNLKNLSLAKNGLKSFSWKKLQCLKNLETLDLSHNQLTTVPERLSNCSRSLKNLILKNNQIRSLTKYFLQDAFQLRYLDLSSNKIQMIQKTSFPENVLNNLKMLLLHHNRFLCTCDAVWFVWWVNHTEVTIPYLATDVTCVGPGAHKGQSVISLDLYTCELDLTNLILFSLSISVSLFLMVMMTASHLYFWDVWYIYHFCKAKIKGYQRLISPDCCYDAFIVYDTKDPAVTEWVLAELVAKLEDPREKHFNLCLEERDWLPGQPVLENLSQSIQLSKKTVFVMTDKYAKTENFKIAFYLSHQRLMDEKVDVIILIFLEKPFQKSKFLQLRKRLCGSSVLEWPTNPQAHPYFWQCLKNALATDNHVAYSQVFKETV
Nature of the experiment: TLR7 inhibition reporter assay (HEK-Blue cells, secreted embryonic alkaline phosphatase reporter). As to conditions: HEK-Blue cells overexpressing human TLR7, stimulated with gardiquimod 7.5 μM; read-out: TLR 7 IC50. In outline:
as §1

The target of a further experiment is T3, human TLR8 (Homo sapiens, UniProt Q9NR97).
T3 construct: host or cells: HEK-Blue cells (HEK293-derived reporter line)
T3 sequence (Q9NR97 27-1041): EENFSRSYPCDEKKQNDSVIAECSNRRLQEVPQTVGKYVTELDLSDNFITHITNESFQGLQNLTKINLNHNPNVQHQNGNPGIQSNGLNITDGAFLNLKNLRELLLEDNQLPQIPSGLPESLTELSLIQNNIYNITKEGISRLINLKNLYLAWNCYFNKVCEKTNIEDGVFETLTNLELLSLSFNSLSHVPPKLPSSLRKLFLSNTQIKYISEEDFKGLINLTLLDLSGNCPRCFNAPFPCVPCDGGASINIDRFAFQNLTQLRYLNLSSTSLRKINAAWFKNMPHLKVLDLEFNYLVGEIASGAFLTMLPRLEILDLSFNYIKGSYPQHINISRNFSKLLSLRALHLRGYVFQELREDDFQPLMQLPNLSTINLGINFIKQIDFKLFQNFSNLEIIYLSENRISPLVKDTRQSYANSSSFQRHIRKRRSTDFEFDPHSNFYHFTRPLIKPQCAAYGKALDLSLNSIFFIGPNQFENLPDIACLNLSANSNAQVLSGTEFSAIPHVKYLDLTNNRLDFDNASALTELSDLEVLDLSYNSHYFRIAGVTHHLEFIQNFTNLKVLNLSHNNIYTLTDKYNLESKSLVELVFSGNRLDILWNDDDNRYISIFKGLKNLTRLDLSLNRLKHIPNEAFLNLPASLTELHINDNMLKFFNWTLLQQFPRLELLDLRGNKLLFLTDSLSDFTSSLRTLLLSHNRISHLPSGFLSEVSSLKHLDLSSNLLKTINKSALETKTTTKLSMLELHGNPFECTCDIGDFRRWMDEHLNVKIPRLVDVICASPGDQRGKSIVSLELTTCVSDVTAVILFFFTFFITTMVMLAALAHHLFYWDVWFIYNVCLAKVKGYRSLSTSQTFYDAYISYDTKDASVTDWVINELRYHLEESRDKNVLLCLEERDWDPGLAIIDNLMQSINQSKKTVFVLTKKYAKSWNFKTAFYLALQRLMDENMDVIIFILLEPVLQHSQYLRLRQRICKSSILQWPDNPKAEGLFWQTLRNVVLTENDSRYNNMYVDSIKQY
Nature of the experiment: TLR8 inhibition reporter assay (HEK-Blue cells, secreted embryonic alkaline phosphatase reporter). As to conditions: HEK-Blue cells overexpressing human TLR8, stimulated with R848 15.9 μM; read-out: TLR 8 IC50. In outline:
as §1

Where [1] appears, read: HEK-Blue cells overexpressing human TLR9, stimulated with ODN2006 5 nM, read-out: TLR 9 IC50.
Setting [2] is: HEK-Blue human TLR9 reporter cells.
Setting [3] is: HEK-Blue cells overexpressing human TLR9, stimulated with ODN2006 5 nM, 22 hour incubation, reporter readout.

Where two headings read alike, the source gives them in different places. Some results are limits rather than exact numbers.

On to `COc1cc(-c2nc3c(C)cc(C4CCN(C5CCN(CC(C)C)CC5)CC4)cc3n2C)cn2ncnc12` [Example 353, 6-(6-(1′-isobutyl-[1,4′-bipiperidin]-4-yl)-1,4-dimethyl-1H-benzo[d]imidazol-2-yl)-8-methoxy-[1,2,4]triazolo[1,5-a]pyridine], for which the IC50 on human TLR9 (setting [1]) was 16 nM; at human TLR9 (setting [2]) it was 16 nM; on human TLR7, 100 nM; at human TLR8, 8200 nM.
As for `COc1cc(-c2nc3c(C)cc(C4CCN(C5CC6CCC(C5)N6C5CC5)CC4)cc3n2C)cn2ncnc12` (centres unmarked) [Example 354, 6-(6-(1-(8-cyclopropyl-8-azabicyclo[3.2.1]octan-3-yl)piperidin-4-yl)-1,4-dimethyl-1H-benzo[d]imidazol-2-yl)-8-methoxy-[1,2,4]triazolo[1,5-a]pyridine], the IC50 at human TLR9 (setting [1]) is 85 nM; against human TLR9 (setting [2]) it was 85 nM; at human TLR7, 7500 nM; at human TLR8 it was 700 nM.
On to `COc1cc(-c2nc3c(C)cc(C4CCN(C5CC6CCC(C5)N6C(C)C)CC4)cc3n2C)cn2ncnc12` (centres unmarked) [Example 357, 6-(6-(1-(8-isopropyl-8-azabicyclo[3.2.1]octan-3-yl)piperidin-4-yl)-1,4-dimethyl-1H-benzo[d]imidazol-2-yl)-8-methoxy-[1,2,4]triazolo[1,5-a]pyridine], for which the half-maximal inhibitory concentration (IC50) on human TLR9 (setting [1]) worked out at 32 nM; against human TLR9 (setting [2]) it was 32 nM; on human TLR7, 300 nM; at human TLR8, 7900 nM.
With `COc1cc(-c2nc3c(C)cc(C4CCN(C5CC6CCC(C5)N6CC5CC5)CC4)cc3n2C)cn2ncnc12` (centres unmarked) [Example 358, 6-(6-(1-(8-(cyclopropylmethyl)-8-azabicyclo[3.2.1]octan-3-yl)piperidin-4-yl)-1,4-dimethyl-1H-benzo[d]imidazol-2-yl)-8-methoxy-[1,2,4]triazolo[1,5-a]pyridine], the IC50 at human TLR9 (setting [1]) worked out at 8.1 nM; at human TLR9 (setting [2]), 8.1 nM; on human TLR7 it was 100 nM; at human TLR8, 2800 nM.
With `COc1cc(-c2nc3c(C)cc(C4CCN(C5CC6CCC(C5)N6CC(C)C)CC4)cc3[nH]2)cn2ncnc12` (centres unmarked) [Example 359, 6-(6-(1-(8-isobutyl-8-azabicyclo[3.2.1]octan-3-yl)piperidin-4-yl)-4-methyl-1H-benzo[d]imidazol-2-yl)-8-methoxy-[1,2,4]triazolo[1,5-a]pyridine], the concentration for half-maximal inhibition (IC50) at human TLR9 (setting [1]) turned out to be 76 nM; against human TLR9 (setting [2]) it was 76 nM; on human TLR7, 2900 nM; at human TLR8, 14900 nM.
With `COc1cc(-c2nc3c(C)cc(C4CCN(C5CC6CCC(C5)N6C5CC5)CC4)cc3[nH]2)cn2ncnc12` (centres unmarked) [Example 360, 6-(6-(1-(8-cyclopropyl-8-azabicyclo[3.2.1]octan-3-yl)piperidin-4-yl)-4-methyl-1H-benzo[d]imidazol-2-yl)-8-methoxy-[1,2,4]triazolo[1,5-a]pyridine], the IC50 at human TLR9 (setting [1]) came to 9.7 nM; at human TLR9 (setting [2]) it was 9.7 nM; at human TLR7 it was 700 nM; on human TLR8, 26300 nM.
Consider `Cc1cc(-c2ccc(C3CCN(C4CCOCC4)CC3)cc2)cc2c1nc(-c1ccc(S(C)(=O)=O)cc1)n2C` [Example 364, 1,4-dimethyl-2-(4-(methylsulfonyl)phenyl)-6-(4-(1-(tetrahydro-2H-pyran-4-yl)piperidin-4-yl)phenyl)-1H-benzo[d]imidazole], for which the IC50 is 310 nM against human TLR9 (setting [3]), over 50000 nM on human TLR7 and over 50000 nM at human TLR8.
`Cc1cc(-c2ccc(C3CCN(C(C)C)CC3)nc2)cc2c1nc(-c1ccc(S(C)(=O)=O)cc1)n2C` [Example 365, 6-(6-(1-isopropylpiperidin-4-yl)pyridin-3-yl)-1,4-dimethyl-2-(4-(methylsulfonyl)phenyl)-1H-benzo[d]imidazole]: the 50% inhibitory concentration (IC50) came out at 300 nM against human TLR9 (setting [3]), 2100 nM on human TLR7 and 14200 nM at human TLR8.
Regarding `Cc1cc(-c2ccc(N3CCC(N4CCCC4)CC3)cc2)cc2c1nc(-c1ccc(S(C)(=O)=O)cc1)n2C` [Example 367, 1,4-dimethyl-2-(4-(methylsulfonyl)phenyl)-6-(4-(4-(pyrrolidin-1-yl)piperidin-1-yl)phenyl)-1H-benzo[d]imidazole], the 50% inhibitory concentration (IC50) came out at 510 nM on human TLR9 (setting [3]), 508 nM at human TLR9 (setting [1]), 2300 nM at human TLR7 and 1900 nM on human TLR8.
For the molecule `Cc1cc(-c2ccc(N3CCC(N(C)C)CC3)cc2)cc2c1nc(-c1ccc(S(C)(=O)=O)cc1)n2C` [Example 368, 1-(4-(1,4-dimethyl-2-(4-(methylsulfonyl)phenyl)-1H-benzo[d]imidazol-6-yl)phenyl)-N,N-dimethylpiperidin-4-amine], the half-inhibitory concentration (IC50) came to 410 nM against human TLR9 (setting [3]), 414 nM on human TLR9 (setting [1]), 1400 nM on human TLR7 and 1700 nM at human TLR8.

These data come from patent publication US12492188B2, “1H-benzo[D]imidazole derivatives as TLR9 inhibitors for the treatment of fibrosis” (BRISTOL-MYERS SQUIBB COMPANY, priority 2020, dated 2025).
